Experimental data published in patent US20250188110A1, “SPECIFIC SMALL MOLECULE INHIBITORS THAT BLOCK KMT9 METHYLTRANSFERASE ACTIVITY AND FUNCTION” (ALBERT-LUDWIGS-UNIVERSITÄT FREIBURG, priority 2021, published 2025).
Like-named read-outs stand apart in the source and are kept apart here.

Columns and labels:
[1] = molecular target: T1, KMT9 (Homo sapiens, UniProt Q9Y5N5); experiment: KMT9 methyltransferase inhibition assay, MTaseGlo luminescence (from entry 155); type: biochemical; settings: 100 nM KMT9, 5 μM ETF1, 1 μM SAM
T1 sequence (Q9Y5N5 1-214): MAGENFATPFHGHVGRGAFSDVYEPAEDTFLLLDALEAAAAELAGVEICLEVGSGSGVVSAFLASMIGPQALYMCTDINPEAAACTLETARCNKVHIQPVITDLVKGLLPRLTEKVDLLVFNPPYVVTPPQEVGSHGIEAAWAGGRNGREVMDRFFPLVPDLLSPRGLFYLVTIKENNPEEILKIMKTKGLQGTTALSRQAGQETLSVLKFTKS
T1 sequence (Q9UI30 1-120 isoform Q9UI30-2 partner): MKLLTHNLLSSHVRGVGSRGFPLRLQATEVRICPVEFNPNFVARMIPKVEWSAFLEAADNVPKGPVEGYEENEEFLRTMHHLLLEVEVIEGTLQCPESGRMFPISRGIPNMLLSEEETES
Method in brief: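 KMT9 (100 nM final) pre-incubated with inhibitor for 15 min at room temperature, then reacted with 5 μM ETF1 and 1 μM SAM for 2 h at 30° C. at 2% DMSO final. MTaseGlo luminescence read after 60 min detection; IC50 reported in four potency bins.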

[2] = molecular target: T1, KMT9; experiment: Microscale thermophoresis (MST) KMT9 binding
Method in brief: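 His-tagged KMT9 (20 nM), RED-Tris-NTA labelled, titrated with varying compound concentrations in 25 mM HEPES pH 7.5, 100 mM NaCl, 1 mM DTT, 0.05% Tween. MST at 40% MST and 100% LED power, Nano-RED excitation; Kd binned A ≤10 nM, B 10–100, C 100–1000, D >1000 nM.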

[3] = molecular target: T1, KMT9; experiment: KMT9 thermal shift assay (SyproOrange); type: binding
Method in brief: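 Recombinant KMT9 was incubated with compound and SyproOrange at 25° C in 50 mM BTP pH 8.5, 1 mM MgCl2, 1 mM DTT. It was then heated from 20° C to 95° C at 1° C per 15 s with fluorescence read each step. Tm came from a Boltzmann sigmoidal fit; ΔTm relative to DMSO control, binned in 5 K ranges.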

[4] = MTaseGlo procedure (entries from 155), read-out: Inhibition (IC50)
[5] = His-tag labelled KMT9 20 nM, read-out: MST (Kd)
[6] = 500 µM compound, 2 μM KMT9, read-out: Thermal shift (ΔTm)
[7] = from entry 155: MTaseGlo assay, read-out: Inhibition
[8] = microscale thermophoresis, His-tag labelled KMT9 (20 nM), read-out: MST
[9] = ΔTm, 500 µM compound, 2 μM KMT9, 5X SO, read-out: Thermal shift

SMILES	IC50 [1, 4] [nM]	Kd [2, 5] [nM]	ΔTm at 500 µM [3, 6] [°C]	IC50 [1, 7] [nM]	Kd [2, 8] [nM]	ΔTm at 500 µM [3, 9] [°C]	further results
COc1ccc([C@H]2C[C@@H](n3ccc4c(N)nc(Cl)nc43)[C@H](O)[C@@H]2O)cn1 [Compound 591, (1R,2S,3R,5R)-3-{4-amino-2-chloropyrrolo[2,3-d]pyrimidin-7-yl}-5-(6-methoxypyridin-3-yl)cyclopentane-1,2-diol]	100 to 1000	10 to 100	10 to 15	–	–	–	–
NCCc1cccc([C@H]2C[C@@H](n3ccc4c(N)ncnc43)[C@H](O)[C@@H]2O)c1 [Compound 592, (1S,2R,3R,5R)-3-[3-(2-Aminoethyl)phenyl]-5-{4-aminopyrrolo[2,3-d]pyrimidin-7-yl}cyclopentane-1,2-diol]	1000 to 10000	> 1000	≤ 10	–	–	–	–
CC1CNCCC1[C@H]1C[C@@H](n2cc(-c3nc(Cc4ccccc4)cs3)c3c(N)ncnc32)[C@H](O)[C@@H]1O (stereo partly drawn) [Compound 595, (1R,2S,3R,5R)-3-[4-amino-5-(4-benzyl-1,3-thiazol-2-yl)pyrrolo[2,3-d]pyrimidin-7-yl]-5-(3-methylpiperidin-4-yl)cyclopentane-1,2-diol]	1000 to 10000	100 to 1000	10 to 15	–	–	–	–
CNc1nc(Cl)nc2c1ccn2[C@@H]1C[C@H](c2ccccc2)[C@@H](O)[C@H]1O [Compound 596, (1R,2S,3R,5R)-3-(2-Chloro-4-(methylamino)-7H-pyrrolo[2,3-d]pyrimidin-7-yl)-5-phenylcyclopentane-1,2-diol]	1000 to 10000	100 to 1000	≤ 10	–	–	–	–
CN1CCC[C@H]([C@H]2C[C@@H](n3cc(-c4nc(Cc5ccccc5)cs4)c4c(N)nc(Cl)nc43)[C@H](O)[C@@H]2O)C1 [Compound 597R, (1R,2S,3R,5R)-3-(4-Amino-5-(4-benzylthiazol-2-yl)-2-chloro-7H-pyrrolo[2,3-d]pyrimidin-7-yl)-5-((R)-1-methylpiperidin-3-yl)cyclopentane-1,2-diol]	100 to 1000	≤ 10	15 to 20	–	–	–	–
CN1CCC[C@@H]([C@H]2C[C@@H](n3cc(-c4nc(Cc5ccccc5)cs4)c4c(N)nc(Cl)nc43)[C@H](O)[C@@H]2O)C1 [Compound 597S, (1R,2S,3R,5R)-3-(4-amino-5-(4-benzylthiazol-2-yl)-2-chloro-7H-pyrrolo[2,3-d]pyrimidin-7-yl)-5-((S)-1-methylpiperidin-3-yl)cyclopentane-1,2-diol]	100 to 1000	≤ 10	15 to 20	–	–	–	–
Nc1ncnc2c1c(-c1nc(Oc3ccccc3)cs1)cn2[C@@H]1C[C@H](CNCCCNCCc2ccccc2)[C@@H](O)[C@H]1O [Compound 607, (1R,2S,3R,5R)-3-(4-amino-5-(4-phenoxythiazol-2-yl)-7H-pyrrolo[2,3-d]pyrimidin-7-yl)-5-(((3-(phenethylamino)propyl)amino)methyl)cyclopentane-1,2-diol]	–	–	–	100 to 1000	10 to 100	15 to 20	–
O[C@@H]1[C@@H](CNCCCNCCc2ccccc2)C[C@@H](n2cc(-c3nc(Cc4ccccc4)cs3)c3cncnc32)[C@@H]1O [Compound 613, (1R,2S,3R,5R)-3-(5-(4-benzylthiazol-2-yl)-7H-pyrrolo[2,3-d]pyrimidin-7-yl)-5-(((3-(phenethylamino)propyl)amino)methyl)cyclopentane-1,2-diol]	–	–	–	1000 to 10000	> 1000	10 to 15	–
COc1csc(-c2cn([C@@H]3C[C@H](CNCCCNCCc4ccccc4)[C@@H](O)[C@H]3O)c3ncncc23)n1 [Compound 615, (1R,2S,3R,5R)-3-(5-(4-Methoxythiazol-2-yl)-7H-pyrrolo[2,3-d]pyrimidin-7-yl)-5-(((3-(phenethylamino)propyl)amino)methyl)cyclopentane-1,2-diol]	–	–	–	–	–	–	IC50 ([1]; IC50 class, MTaseGlo procedure (entries from 155 on), read-out: Inhibition): > 10000 nM; Kd ([2]; His-tag labelled KMT9 20 nM, Kd class, read-out: MST): > 1000 nM; ΔTm at 500 µM ([3]; ΔTm class, 500 uM compound, 2 μM KMT9, read-out: Thermal shift): ≤ 10 °C
O[C@@H]1[C@@H](CN(CCCNCCc2ccccc2)c2cn[nH]c2)C[C@@H](n2cc(-c3cccs3)c3cncnc32)[C@@H]1O [Compound 616]	–	–	–	1000 to 10000	10 to 100	10 to 15	–
